According to patent US7906507B2, “Oxadiazoanthracene compounds for the treatment of diabetes” (TransTech Pharma, Inc., priority 2008, dated 2011):

Molecular target: T1, cloned human GLP-1 receptor (Homo sapiens, UniProt P43220)
T1 construct: expressed in transfected cells; host or cells: CHO or HEK-293 cells
Assay: Functional cell-based assay: cAMP functional assay
Details: for Emax: 0.5 h, percentage relative to maximal GLP-1-induced cAMP accumulation, na = not active in the assay, read-out: % activation
Procedure, shortened: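 Monolayer cells incubated 30 min at 37 °C with compounds (0.0001–100 μM) in IMDM containing 100 μM RO 20-1724 PDE inhibitor, 0.1% BSA and 2% DMSO. cAMP measured by HTRF.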

T1 sequence (P43220 24-463): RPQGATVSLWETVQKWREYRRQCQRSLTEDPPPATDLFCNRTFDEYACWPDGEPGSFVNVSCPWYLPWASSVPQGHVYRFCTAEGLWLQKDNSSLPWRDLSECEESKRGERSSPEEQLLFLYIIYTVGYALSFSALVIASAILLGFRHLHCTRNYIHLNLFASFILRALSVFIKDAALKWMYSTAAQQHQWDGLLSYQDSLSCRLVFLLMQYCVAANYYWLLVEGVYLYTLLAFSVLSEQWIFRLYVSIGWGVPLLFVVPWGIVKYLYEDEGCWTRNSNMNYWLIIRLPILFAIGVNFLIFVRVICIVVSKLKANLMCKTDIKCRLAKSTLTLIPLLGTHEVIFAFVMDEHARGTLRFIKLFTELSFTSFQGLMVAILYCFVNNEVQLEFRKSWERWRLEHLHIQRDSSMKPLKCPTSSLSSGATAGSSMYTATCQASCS

SMILES | EC50 | Emax
CCc1ccccc1CN1Cc2cc3c(cc2C[C@H]1C(=O)N[C@@H](Cc1ccc(-c2ccc(C#N)cc2)cc1)C(=O)O)N(C)C(=O)C(c1ccc(OCc2ccc(Cl)c(Cl)c2)cc1)O3 (stereo partly drawn) [Example 71, (S)-3-(4′-Cyano-biphenyl-4-yl)-2-{[(S)-3-[4-(3,4-dichloro-benzyloxy)-phenyl]-6-(2-ethyl-benzyl)-1-methyl-2-oxo-2,3,5,6,7,8-hexahydro-1H-4-oxa-1,6-diaza-anthracene-7-carbonyl]-amino}-propionic acid] | 793 nM | 49%
N#Cc1ccc(-c2ccc(C[C@H](NC(=O)[C@@H]3Cc4cc5c(cc4CN3Cc3ccccc3)OC(c3ccc(OCc4cnc(Cl)c(Cl)c4)cc3)C(=O)N5)C(=O)O)cc2)cc1 (stereo partly drawn) [Example 65, (S)-2-({(8)-6-Benzyl-3-[4-(5,6-dichloro-pyridin-3-ylmethoxy)-phenyl]-2-oxo-2,3,5,6,7,8-hexahydro-1H-4-oxa-1,6-diaza-anthracene-7-carbonyl}-amino)-3-(4′-cyano-biphenyl-4-yl)-propionic acid] | 220 nM | 32%
N#Cc1ccc(-c2ccc(C[C@H](NC(=O)[C@@H]3Cc4cc5c(cc4CN3CC#Cc3ccccc3)OC(c3ccc(OCc4ccc(Cl)c(Cl)c4)cc3)C(=O)N5)C(=O)O)cc2)cc1 (stereo partly drawn) [Example 7, (S)-3-(4′-Cyano-biphenyl-4-yl)-2-{[(S)-3-[4-(3,4-dichloro-benzyloxy)-phenyl]-2-oxo-6-(3-phenyl-prop-2-ynyl)-2,3,5,6,7,8-hexahydro-1H-4-oxa-1,6-diaza-anthracene-7-carbonyl]-amino}-propionic acid] | 474 nM | 35%
CC(C)OC(=O)N1Cc2cc3c(cc2C[C@H]1C(=O)N[C@@H](Cc1ccc(-c2ccc(C#N)cc2)cc1)C(=O)O)N(C)C(=O)C(c1ccc(OCc2ccc(Cl)c(Cl)c2)cc1)O3 (stereo partly drawn) [Example 68, (S)-7-[(S)-1-Carboxy-2-(4′-cyano-biphenyl-4-yl)-ethylcarbamoyl]-3-[4-(3,4-dichloro-benzyloxy)-phenyl]-1-methyl-2-oxo-1,2,3,5,7,8-hexahydro-4-oxa-1,6-diaza-anthracene-6-carboxylic acid isopropyl ester] | 1100 nM | 33%
CC(C)(C)COC(=O)N1Cc2cc3c(cc2C[C@H]1C(=O)N[C@@H](Cc1ccc(-c2ccc(C#N)cc2)cc1)C(=O)O)NC(=O)C(c1ccc(OCc2ccc(Cl)c(Cl)c2)cc1)O3 (stereo partly drawn) [Example 10, (S)-7-[(S)-1-Carboxy-2-(4′-cyano-biphenyl-4-yl)-ethylcarbamoyl]-3-[4-(3,4-dichloro-benzyloxy)-phenyl]-2-oxo-1,2,3,5,7,8-hexahydro-4-oxa-1,6-diaza-anthracene-6-carboxylic acid 2,2-dimethyl-propyl ester] | 418 nM | 51%
N#Cc1ccc(-c2ccc(C[C@H](NC(=O)[C@@H]3Cc4cc5c(cc4CN3S(=O)(=O)c3ccccc3[N+](=O)[O-])OC(c3ccc(OCc4ccc(Cl)c(Cl)c4)cc3)C(=O)N5)C(=O)O)cc2)cc1 (stereo partly drawn) [Example 51, (S)-3-(4′-Cyano-biphenyl-4-yl)-2-{[(S)-3-[4-(3,4-dichloro-benzyloxy)-phenyl]-6-(2-nitro-benzenesulfonyl)-2-oxo-2,3,5,6,7,8-hexahydro-1H-4-oxa-1,6-diaza-anthracene-7-carbonyl]-amino}-propionic acid] | 820 nM | 30%
CCC(c1ccccc1)N1Cc2cc3c(cc2C[C@H]1C(=O)N[C@@H](Cc1ccc(-c2ccc(C#N)cc2)cc1)C(=O)O)N(C)C(=O)C(c1ccc(OCc2ccc(Cl)c(Cl)c2)cc1)O3 (stereo partly drawn) [Example 70, (S)-3-(4′-Cyano-biphenyl-4-yl)-2-{[(S)-3-[4-(3,4-dichloro-benzyloxy)-phenyl]-1-methyl-2-oxo-6-(1-phenyl-propyl)-2,3,5,6,7,8-hexahydro-1H-4-oxa-1,6-diaza-anthracene-7-carbonyl]-amino}-propionic acid] | 988 nM | 6.9%
N#Cc1ccc(-c2ccc(C[C@H](NC(=O)[C@@H]3Cc4cc5c(cc4CN3C(=O)OC3CCC(O)CC3)OC(c3ccc(OCc4ccc(Cl)c(Cl)c4)cc3)C(=O)N5)C(=O)O)cc2)cc1 (stereo partly drawn) [Example 1, (S)-7-[(S)-1-Carboxy-2-(4′-cyano-biphenyl-4-yl)-ethylcarbamoyl]-3-[4-(3,4-dichloro-benzyloxy)-phenyl]-2-oxo-1,2,3,5,7,8-hexahydro-4-oxa-1,6-diaza-anthracene-6-carboxylic acid 4-hydroxy-cyclohexyl ester] | 900 nM | 15%
N#Cc1ccc(-c2ccc(C[C@H](NC(=O)[C@@H]3Cc4cc5c(cc4CN3S(=O)(=O)c3cccc([N+](=O)[O-])c3)OC(c3ccc(OCc4ccc(Cl)c(Cl)c4)cc3)C(=O)N5)C(=O)O)cc2)cc1 (stereo partly drawn) [Example 52, (S)-3-(4′-Cyano-biphenyl-4-yl)-2-{[(S)-3-[4-(3,4-dichloro-benzyloxy)-phenyl]-6-(3-nitro-benzenesulfonyl)-2-oxo-2,3,5,6,7,8-hexahydro-1H-4-oxa-1,6-diaza-anthracene-7-carbonyl]-amino}-propionic acid] | 810 nM | 33%
CC[C@@H](c1ccccc1)N1Cc2cc3c(cc2C[C@H]1C(=O)N[C@@H](Cc1ccc(-c2ccc(OC)cc2)cc1)C(=O)O)N(C)C(=O)[C@H](c1ccc(OCc2ccc(Cl)c(Cl)c2)cc1)O3 [Example 94, (S)-2-{[(3S,7S)-3-[4-(3,4-Dichloro-benzyloxy)-phenyl]-1-methyl-2-oxo-6-((S)-1-phenyl-propyl)-2,3,5,6,7,8-hexahydro-1H-4-oxa-1,6-diaza-anthracene-7-carbonyl]-amino}-3-(4′-methoxy-biphenyl-4-yl)-propionic acid] | 424 nM | 41%
CC[C@@H](c1ccccc1)N1Cc2cc3c(cc2C[C@H]1C(=O)N[C@@H](Cc1ccc(-c2ccc(C#N)cc2)cc1)C(=O)O)N(C)C(=O)[C@H](c1ccc(OCc2ccc(Cl)c(Cl)c2)cc1)O3 [Example 87, (S)-3-(4′-Cyano-biphenyl-4-yl)-2-{[(3S,7S)-3-[4-(3,4-dichloro-benzyloxy)-phenyl]-1-methyl-2-oxo-6-((S)-1-phenyl-propyl)-2,3,5,6,7,8-hexahydro-1H-4-oxa-1,6-diaza-anthracene-7-carbonyl]-amino}-propionic acid] | 64.5 nM | 82%
CC(C)OC(=O)N1Cc2cc3c(cc2C[C@H]1C(=O)N[C@@H](Cc1ccc(-c2ccc(C#N)cc2)cc1)C(=O)O)NC(=O)C(c1ccc(OCc2ccc(Cl)c(Cl)c2)cc1)O3 (stereo partly drawn) [Example 8, (S)-7-[(S)-1-Carboxy-2-(4′-cyano-biphenyl-4-yl)-ethylcarbamoyl]-3-[4-(3,4-dichloro-benzyloxy)-phenyl]-2-oxo-1,2,3,5,7,8-hexahydro-4-oxa-1,6-diaza-anthracene-6-carboxylic acid isopropyl ester] | 134 nM | 64%

Continued, values first:

EC50 | Emax | SMILES
710 nM | 18% | O=C1Nc2cc3c(cc2OC1c1ccc(OCc2ccc(Cl)c(Cl)c2)cc1)CN(C(=O)c1ccccc1)[C@H](C(=O)N[C@@H](Cc1ccc(-c2ccncc2)cc1)C(=O)O)C3 (stereo partly drawn) [Example 83, (S)-2-({(S)-6-Benzoyl-3-[4-(3,4-dichloro-benzyloxy)-phenyl]-2-oxo-2,3,5,6,7,8-hexahydro-1H-4-oxa-1,6-diaza-anthracene-7-carbonyl}-amino)-3-(4-pyridin-4-yl-phenyl)-propionic acid]
3800 nM | 20% | N#Cc1ccc(-c2ccc(C[C@H](NC(=O)[C@@H]3Cc4cc5c(cc4CN3C(=O)c3cccnc3)OC(c3ccc(OCc4ccc(Cl)c(Cl)c4)cc3)C(=O)N5)C(=O)O)cc2)cc1 (stereo partly drawn) [Example 4, (S)-3-(4′-Cyano-biphenyl-4-yl)-2-{[(S)-3-[4-(3,4-dichloro-benzyloxy)-phenyl]-2-oxo-6-(pyridine-3-carbonyl)-2,3,5,6,7,8-hexahydro-1H-4-oxa-1,6-diaza-anthracene-7-carbonyl]-amino}-propionic acid]
750 nM | 52% | N#Cc1ccc(-c2ccc(C[C@H](NC(=O)[C@@H]3Cc4cc5c(cc4CN3C(=O)c3ccccc3)OC(c3ccc(OCc4cccc(Cl)c4)cc3)C(=O)N5)C(=O)O)cc2)cc1 (stereo partly drawn) [Example 59, (S)-2-({(S)-6-Benzoyl-3-[4-(3-chloro-benzyloxy)-phenyl]-2-oxo-2,3,5,6,7,8-hexahydro-1H-4-oxa-1,6-diaza-anthracene-7-carbonyl}-amino)-3-(4′-cyano-biphenyl-4-yl)-propionic acid]
160 nM | 31% | N#Cc1ccc(-c2ccc(C[C@H](NC(=O)[C@@H]3Cc4cc5c(cc4CN3Cc3ccccc3)OC(c3ccc(OCc4ccc(Cl)c(Cl)c4)cc3)C(=O)N5)C(=O)O)cc2)cc1 (stereo partly drawn) [Example 34, (S)-2-({(S)-6-Benzyl-3-[4-(3,4-dichloro-benzyloxy)-phenyl]-2-oxo-2,3,5,6,7,8-hexahydro-1H-4-oxa-1,6-diaza-anthracene-7-carbonyl}-amino)-3-(4′-cyano-biphenyl-4-yl)-propionic acid]
190 nM | 36% | N#Cc1ccc(-c2ccc(C[C@H](NC(=O)[C@@H]3Cc4cc5c(cc4CN3C(=O)c3ccccc3)OC(c3ccc(OCc4cnc(Cl)c(Cl)c4)cc3)C(=O)N5)C(=O)O)cc2)cc1 (stereo partly drawn) [Example 64, (S)-2-({(S)-6-Benzoyl-3-[4-(5,6-dichloro-pyridin-3-ylmethoxy)-phenyl]-2-oxo-2,3,5,6,7,8-hexahydro-1H-4-oxa-1,6-diaza-anthracene-7-carbonyl}-amino)-3-(4′-cyano-biphenyl-4-yl)-propionic acid]
1200 nM | 16% | N#Cc1ccc(-c2ccc(C[C@H](NC(=O)[C@@H]3Cc4cc5c(cc4CN3CCc3ccccc3)OC(c3ccc(OCc4ccc(Cl)c(Cl)c4)cc3)C(=O)N5)C(=O)O)cc2)cc1 (stereo partly drawn) [Example 35, (S)-3-(4′-Cyano-biphenyl-4-yl)-2-({(S)-3-[4-(3,4-dichloro-benzyloxy)-phenyl]-2-oxo-6-phenethyl-2,3,5,6,7,8-hexahydro-1H-4-oxa-1,6-diaza-anthracene-7-carbonyl}-amino)-propionic acid]
